In US20250098679A1, “HERBICIDAL PYRIDONE DERIVATIVES” (SYNGENTA CROP PROTECTION AG, priority 2021, published 2025):

Assays:
Type in all cases: in vivo
[1] = tested on: Setaria faberi (SETFA); assay: Pre-emergence Test, Setaria faberi (SETFA); details: 1000 g/ha, evaluated after 13 days
[2] = tested on: Echinochloa crus-galli (ECHCG); assay: Pre-emergence Test, Echinochloa crus-galli (ECHCG); details: 1000 g/ha, evaluated after 13 days
[3] = tested on: Zea mays (ZEAMX); assay: Pre-emergence Test, Zea mays (ZEAMX); details: 1000 g/ha, evaluated after 13 days
[4] = tested on: Ipomoea hederacea (IPOHE); assay: Pre-emergence Test, Ipomoea hederacea (IPOHE); details: 1000 g/ha, evaluated after 13 days
[5] = tested on: Amaranthus palmeri (AMAPA); assay: Pre-emergence Test, Amaranthus palmeri (AMAPA); details: 1000 g/ha, evaluated after 13 days
[6] = tested on: Amaranthus retoflexus (AMARE); assay: Pre-emergence Test, Amaranthus retoflexus (AMARE); details: 1000 g/ha, evaluated after 13 days
[7] = tested on: Setaria faberi (SETFA); assay: Post-emergence Test, Setaria faberi (SETFA); design: key to percentage damage caused to the plant, SETFA (five-point scale): 5=81-100%, 4=61-80%, 3=41-60%, 2=21-40%, 1=0-20% damage; details: evaluated after 13 days
Method in brief: (§1)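 Percent plant damage was rated 13 days post-application on a 1–5 scale (1=0-20%, 5=81-100%). Application used an aqueous acetone (50:50)/0.5% Tween 20 spray, normally 1000 g/ha, with controlled glasshouse conditions (24/16 °C, 14 h light, 65% humidity).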

[8] = tested on: Echinochloa crus-galli (ECHCG); assay: Post-emergence Test, Echinochloa crus-galli (ECHCG); design: key to percentage damage caused to the plant, ECHCG (five-point scale): 5=81-100%, 4=61-80%, 3=41-60%, 2=21-40%, 1=0-20% damage; details: evaluated after 13 days
Method in brief: as §1

[9] = tested on: Zea mays (ZEAMX); assay: Post-emergence Test, Zea mays (ZEAMX); design: key to percentage damage caused to the plant, ZEAMX (five-point scale): 5=81-100%, 4=61-80%, 3=41-60%, 2=21-40%, 1=0-20% damage; details: evaluated after 13 days
Method in brief: as §1

[10] = tested on: Ipomoea hederacea (IPOHE); assay: Post-emergence Test, Ipomoea hederacea (IPOHE); design: key to percentage damage caused to the plant, IPOHE (five-point scale): 5=81-100%, 4=61-80%, 3=41-60%, 2=21-40%, 1=0-20% damage; details: evaluated after 13 days
Method in brief: as §1

[11] = tested on: Amaranthus palmeri (AMAPA); assay: Post-emergence Test, Amaranthus palmeri (AMAPA); design: key: 5=81-100%, 4=61-80%, 3=41-60%, 2=21-40%, 1=0-20% damage; details: evaluated after 13 days
Method in brief: as §1

[12] = tested on: Amaranthus retoflexus (AMARE); assay: Post-emergence Test, Amaranthus retoflexus (AMARE); design: key to percentage damage caused to the plant, AMARE (five-point scale): 5=81-100%, 4=61-80%, 3=41-60%, 2=21-40%, 1=0-20% damage; details: evaluated after 13 days
Method in brief: as §1

Compound | Pre-emergence Test SETFA, percentage damage caused to the plant (five-point scale) [1] | Pre-emergence Test ECHCG, percentage damage caused to the plant (five-point scale) [2] | Pre-emergence Test ZEAMX, percentage damage caused to the plant (five-point scale) [3] | Pre-emergence Test IPOHE, percentage damage caused to the plant (five-point scale) [4] | Pre-emergence Test AMAPA, percentage damage caused to the plant (five-point scale) [5] | Pre-emergence Test AMARE, percentage damage caused to the plant (five-point scale) [6] | percentage damage caused to the plant, SETFA (five-point scale) ([7]; 1000 g/ha) | percentage damage caused to the plant, ECHCG (five-point scale) ([8]; 1000 g/ha) | percentage damage caused to the plant, ZEAMX (five-point scale) ([9]; 1000 g/ha) | percentage damage caused to the plant, IPOHE (five-point scale) ([10]; 1000 g/ha) | percentage damage caused to the plant, AMAPA (five-point scale) ([11]; 1000 g/ha) | percentage damage caused to the plant, AMARE (five-point scale) ([12]; 1000 g/ha) | percentage damage caused to the plant, SETFA (five-point scale) ([7]; 250 g/Ha) | percentage damage caused to the plant, ECHCG (five-point scale) ([8]; 250 g/Ha) | percentage damage caused to the plant, ZEAMX (five-point scale) ([9]; 250 g/Ha) | percentage damage caused to the plant, IPOHE (five-point scale) ([10]; 250 g/Ha) | percentage damage caused to the plant, AMAPA (five-point scale) ([11]; 250 g/Ha) | percentage damage caused to the plant, AMARE (five-point scale) ([12]; 250 g/Ha)
CCOC(=O)c1c(-c2ccc(Cl)c(Cl)c2)n(CC)c(Cn2ccc(Cl)n2)c(Br)c1=O [Compound 27, ethyl 5-bromo-6-[(3-chloropyrazo1-1-yl)methyl]-2-(3,4-dichlorophenyl)-1-ethyl-4-oxo-pyridine-3-carboxylate] | 0 | 0 | 0 | 0 | 0 | 1 (1=0-20%) | 0 | 0 | 0 | 0 | 0 | 0 | – | – | – | – | – | –
CCn1c(Cn2ccc(Cl)n2)cc(=O)c(C(=O)O)c1-c1ccc(F)c(Cl)c1 [Compound 28, 2-(3-chloro-4-fluoro-phenyl)-6-[(3-chloropyrazol-1-yl)methyl]-1-ethyl-4-oxo-pyridine-3-carboxylic acid] | 5 (5=81-100%) | 5 (5=81-100%) | 0 | 1 (1=0-20%) | 0 | 0 | 4 (4=61-80%) | 4 (4=61-80%) | 4 (4=61-80%) | 1 (1=0-20%) | 2 (2=21-40%) | 0 | 4 (4=61-80%) | 3 (3=41-60%) | 0 | 4 (4=61-80%) | 1 (1=0-20%) | 1 (1=0-20%)
CCn1c(Cn2ccc(C(F)(F)F)n2)cc(=O)c(C(=O)O)c1-c1ccc(Cl)c(F)c1 [Compound 30, 2-(4-chloro-3-fluoro-phenyl)-1-ethyl-4-oxo-6-[[3-(trifluoromethyl)pyrazol-1-yl]methyl]pyridine-3-carboxylic acid] | 5 (5=81-100%) | 5 (5=81-100%) | 5 (5=81-100%) | 4 (4=61-80%) | 1 (1=0-20%) | 0 | 5 (5=81-100%) | 4 (4=61-80%) | 4 (4=61-80%) | 2 (2=21-40%) | 2 (2=21-40%) | 4 (4=61-80%) | 4 (4=61-80%) | 3 (3=41-60%) | 3 (3=41-60%) | 4 (4=61-80%) | 0 | 1 (1=0-20%)
CCn1c(Cn2ccc(C(F)(F)F)n2)cc(=O)c(C(=O)O)c1-c1ccc(F)c(F)c1 [Compound 31, 2-(3,4-difluorophenyl)-1-ethyl-4-oxo-6-[[3-(trifluoromethyl)pyrazol-1-yl]methyl]pyridine-3-carboxylic acid] | 5 (5=81-100%) | 5 (5=81-100%) | 0 | 1 (1=0-20%) | 0 | 0 | 4 (4=61-80%) | 4 (4=61-80%) | 3 (3=41-60%) | 2 (2=21-40%) | 2 (2=21-40%) | 2 (2=21-40%) | 4 (4=61-80%) | 2 (2=21-40%) | 1 (1=0-20%) | 4 (4=61-80%) | 0 | 1 (1=0-20%)
CCn1c(Cn2ccc(C(F)(F)F)n2)cc(=O)c(C(=O)O)c1-c1ccc(F)c(Cl)c1 [Compound 32, 2-(3-chloro-4-fluoro-phenyl)-1-ethyl-4-oxo-6-[[3-(trifluoromethyl)pyrazol-1-yl]methyl]pyridine-3-carboxylic acid] | 5 (5=81-100%) | 5 (5=81-100%) | 4 (4=61-80%) | 3 (3=41-60%) | 4 (4=61-80%) | 3 (3=41-60%) | 4 (4=61-80%) | 4 (4=61-80%) | 3 (3=41-60%) | 2 (2=21-40%) | 2 (2=21-40%) | 4 (4=61-80%) | 4 (4=61-80%) | 3 (3=41-60%) | 1 (1=0-20%) | 4 (4=61-80%) | 2 (2=21-40%) | 1 (1=0-20%)
